Laboratory results from patent US20080171355A1, “DEVICE FOR TESTING THE EFFECTIVENESS OF DISINFECTANTS ON PROTOZOAN PARASITES” (priority 2006, published 2008).

Tested on: Oocysts of Eimeria acervulina
Format: cell-based

## CC(=O)OO [Peracetic Acid]
  Sporulation Rate (%): 65.9%
